Among the data in the METLIN SMRT retention time set (Domingo-Almenara et al. 2019) are RP-LC retention time values, retold here.

The nature of this data set: gradient 5% acetonitrile 3 min, to 50% in 2 min, to 85% in 15 min, held 3 min, 100 µL/min. The following applies: column: Zorbax Extend-C18 2.1 x 50 mm; eluents: water / acetonitrile, 0.1% formic acid. An outline of the steps: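 Each retention time is based on an adduct peak selected computationally and verified by manual inspection. Measurements used HPLC–quadrupole time-of-flight mass spectrometry in positive and negative ionization mode on mixtures of ~100 pure standards. Chromatography ran on a Zorbax Extend-C18 column (2.1 × 50 mm, 1.8 μm) at 100 μL/min with water and acetonitrile, each containing 0.1% formic acid, and dead and dwell volumes of 40 μL and 900 μL.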
With `O=C(NCC(O)c1ccsc1)Nc1cccs1` (centres undefined), the RP-LC retention time came out at 642 s.
In the case of `CN(C)C(=O)c1ccc2c(c1)n(Cc1ccccc1)c(=O)c1ccnn12`, the RP-LC retention time was 768 s.
With `O=C(NCCCN1CCCC1=O)C1CCN(c2ncnc3c2oc2ccccc23)CC1` the figure was 602 s; with `O=C(Cn1c(-c2cccs2)cc2cc(F)ccc21)NCCCN1CCOCC1`, 671 s; with `Cc1cccc(Sc2nccnc2N2CCCC(C(=O)NCCC(C)C)C2)c1` (centres undefined), 1140 s.
Consider `COc1cc(NC(=O)c2cc(C(C)(C)C)n3nccc3n2)cc(OC)c1`, for which the RP-LC retention time was 721 s.
Consider `COc1cc2c(cc1CNC(=O)COc1ccc(Cl)cc1)OCCCO2`, for which the RP-LC retention time came out at 982 s.
On to `CNC(=O)c1ccc(-c2nc3cc(NS(=O)(=O)c4cnc[nH]4)ccc3n2C)cc1`, for which the RP-LC retention time was determined as 548 s.
Regarding `Cc1ccc(-c2cn3cccnc3n2)cc1NC(=O)CCC1CCCCC1`, the RP-LC retention time was 789 s.
Take `CC(C)OC(=O)c1ncoc1-c1ccccc1C(=O)NCC1CCCO1` (centres undefined): the RP-LC retention time stood at 676 s.
`COc1cccc(NC(=O)C2CCN(c3cc(N4CCCCC4)ncn3)CC2)c1`: the RP-LC retention time stood at 708 s.
`CN1C(=O)COc2cc(-c3noc(C(=O)NCC4CCCO4)n3)ccc21` (centres undefined) gave an RP-LC retention time of 702 s.
Then `O=C(NC1CCCCC1)c1nc(Cn2c(=O)oc3ccc(Cl)cc32)no1`, with 981 s.
With `Cc1n[nH]c(C)c1S(=O)(=O)N1CCN(c2ccc3nnc(C4CC4)n3n2)CC1` the figure was 604 s; with `COCCN1CC2(CCCC2)N(Cc2ccc(C(C)C)cc2)CC1=O`, 690 s; with `COc1cccc(-c2nc(C3CCN(C(=O)c4cc5ccccc5[nH]4)CC3)no2)c1`, 1040 s.
`Cc1nnc(-c2ccc3ccn(CC(=O)Nc4ccc(F)c(F)c4)c3c2)o1`: the RP-LC retention time worked out at 829 s.
Consider `COc1ccc(-c2noc(N3CCC(C(=O)NCCN4CCOCC4)CC3)n2)cc1OC`, for which the RP-LC retention time is 591 s.
`CCN(CC)CCNc1ncnc2onc(-c3cccc(Cl)c3)c12` gave an RP-LC retention time of 660 s.
The molecule `CC(=O)/C=C1\C(=O)N(C)c2ccccc21` returned an RP-LC retention time of 858 s.
Turning to `Cn1nc(-c2nnc(-c3ccc(F)cc3)o2)c2c1CCN(S(=O)(=O)c1ccc3c(c1)CCC3)C2`, the RP-LC retention time was 1290 s.
Molecule `Cc1cc(C)cc(NC(=O)Nc2nccn(-c3cc(C)cc(C)c3)c2=O)c1` had an RP-LC retention time of 1220 s.
For `CCCc1ccc(S(=O)(=O)N2CCC3(CC2)NCCN=C3NCc2ccc(OC)cc2)cc1`, the RP-LC retention time came out at 826 s.
Then `CNC(=O)c1c2c(nc3ccc(F)cc13)CCCC2`, with 571 s; and `O=C(Nc1ccc(N2CCOCC2)cc1)C1CCCN(c2nccnc2Oc2ccccc2)C1` (centres undefined), with 852 s.
`O=C(Nc1cc(-c2ccco2)nn1CCO)c1ccc(S(=O)(=O)N2CCOCC2)cc1` returned an RP-LC retention time of 622 s.
With `COc1ccc(Cl)cc1S(=O)(=O)Nc1ccc2nc(N3CCN(C)CC3)cc(C(=O)O)c2c1` the figure was 604 s; with `CCc1cc(C(=O)N2CCOCC2)nc2cc(-c3cccs3)nn12`, 838 s; with `Cc1cc(C)c2sc(NC(=O)c3ccco3)nc2c1`, 881 s.
Molecule `Cc1ccc(Nc2c(-c3ccc(N4CCOCC4)cc3)nc3cnccn23)cc1` registered an RP-LC retention time of 848 s.
With `Cc1cccc(-c2nc(C3CCN(C(=O)C(NC(=O)c4ccco4)C(C)C)CC3)no2)c1` (centres undefined) the figure was 1010 s; with `CCN1CCN(C(=O)c2cc3n(n2)CC(C)(C(=O)NC2CCCCC2)N(C)C3=O)CC1` (centres undefined), 584 s.
Then `CC(=O)C1=C(C)N(CC2CCCO2)C(=O)C1(NC(=O)c1ccc(C(C)(C)C)cc1)C(F)(F)F` (centres undefined), with 1050 s.
`Cc1ccc(-c2nc3ccccn3c2Nc2ccc3c(c2)OCCO3)cc1` showed an RP-LC retention time of 690 s.
Then `O=C(CN1C(=O)C2CCCCN2c2ccc(S(=O)(=O)N3CCCC3)cc21)NC1CCCC1` (centres undefined), with 761 s; and `CC(C)Oc1ccc(CNC(=O)C2CCCN(c3nn4c(=O)c5c(nc4s3)CCCC5)C2)cc1` (centres undefined), with 844 s; and `CN[C@H](CNC(=O)N1CCC[C@@H]([C@@H](OCCNC(=O)OC)c2cccc(Cl)c2)C1)C[C@H]1CCCOC1`, with 780 s.
`O=C(NCc1cccnc1)C1c2ccccc2C(=O)N1CCc1ccc(Cl)cc1` (centres undefined) came in with an RP-LC retention time of 668 s.
Take `O=C(c1cc(-c2ccncc2)n[nH]1)N1CCC(C(=O)N2CCN(c3ncccn3)CC2)CC1`: the RP-LC retention time turned out to be 575 s.
Consider `CCN(CC)C(=O)C1CCCN(c2ncnc3c2cnn3-c2ccccc2)C1` (centres undefined), for which the RP-LC retention time was found to be 881 s.
With `CCCN1CCN(c2ncc3c(n2)CCN(Cc2ccc(OCC)c(OCC)c2)C3)CC1` the figure was 579 s; with `Nc1nc(Cl)nc2c1ncn2[C@@H]1O[C@H](CO)[C@@H](O)[C@@H]1F`, 600 s.
In the case of `CCOc1ccccc1NC(=O)N1CCC2(CC1)NC(=O)c1ccccc1O2`, the RP-LC retention time was 810 s.
With `CC(=O)N1CCCSc2ccc(S(=O)(=O)N(C)c3ccc(C)c(C)c3)cc21`, the RP-LC retention time came out at 1030 s.
With `CCCn1cc(S(=O)(=O)Nc2cc(F)ccc2F)c2cccnc21` the figure was 890 s; with `Cc1ccc(C(=O)NCCn2c(=O)n(Cc3ccccc3)c3cccnc32)s1`, 805 s; with `CN1CCN(C(=O)c2ccc(-c3ccc(Br)cc3)o2)CC1`, 588 s.
On to `Cc1nnc(N2CCC(C(=O)NCCCN3CCCC3=O)CC2)c2nn(-c3ccccc3)c(C)c12`, for which the RP-LC retention time worked out at 622 s.
As for `CCCC(=O)Nc1ccc2c(c1)CN(C(=O)c1ccc(C#N)cc1)C(C(=O)N(C)C)C2` (centres undefined), the RP-LC retention time is 681 s.
The molecule `COc1cc(C(=O)Nc2cccc(-c3cn4cccnc4n3)c2)cc(OC)c1OC` gave an RP-LC retention time of 642 s.
In the case of `O=C(Cc1ccc([N+](=O)[O-])cc1)NC1CC(=O)N(c2ccc(Cl)cc2)C1` (centres undefined), the RP-LC retention time turned out to be 760 s.
`O=C(Cn1nc2c(N3CCCCCC3)nccn2c1=O)Nc1cccc(Cl)c1` showed an RP-LC retention time of 763 s.
With `Cc1noc(C)c1CN1CCN(C(=O)NCc2cccc(F)c2)CC1` the figure was 599 s; with `COc1ccccc1OCCC1CCN(S(=O)(=O)Cc2ccccc2)C1` (centres undefined), 692 s.
The molecule `O=C(Cc1cccc(C(F)(F)F)c1)N1CCN(c2nnc3ccccn23)CC1` gave an RP-LC retention time of 702 s.
The molecule `Cc1ccccc1NC(=O)C1CCCN(S(=O)(=O)c2cc(-c3noc(C4CCC4)n3)cs2)C1` (centres undefined) came in with an RP-LC retention time of 1130 s.
On to `O=C(NCc1ccc(F)c(Cl)c1)c1cn2ccccc2n1`, for which the RP-LC retention time came to 723 s.
With `Cc1ncoc1C(=O)N1CCC(N2C(=O)C(OCC3CC3)C23CCOCC3)CC1` (centres undefined), the RP-LC retention time stood at 634 s.
For the molecule `Cc1ccc(CN2CCN(C3CCN(C(=O)Nc4ccc(F)cc4)CC3)C(=O)C2=O)cc1`, the RP-LC retention time is 776 s.
